Results reported in ChEMBL document CHEMBL1152236 (Bioorg Med Chem, 2008).

Experiments:
Carbonic anhydrase 1 [1] = biological target: T1, Carbonic anhydrase 1 (Homo sapiens, UniProt P00915); assay: Inhibition of human carbonic anhydrase 1 esterase activity by spectrophotometry
Carbonic anhydrase 2 [2] = biological target: T2, Carbonic anhydrase 2 (Homo sapiens, UniProt P00918); assay: Inhibition of human carbonic anhydrase 2 esterase activity by spectrophotometry
Carbonic anhydrase 1 [3] = biological target: T1, Carbonic anhydrase 1; assay: Inhibition of human carbonic anhydrase 1 esterase activity by noncompetitive Lineweaver-Burke plot
Carbonic anhydrase 2 [4] = biological target: T2, Carbonic anhydrase 2; assay: Inhibition of human carbonic anhydrase 2 esterase activity by non-competitive Lineweaver-Burke plot
Carbonic anhydrase 2 [5] = biological target: T2, Carbonic anhydrase 2; assay: Inhibition of human carbonic anhydrase 2 esterase activity by uncompetitive Lineweaver-Burke plot
Carbonic anhydrase 1 [6] = biological target: T1, Carbonic anhydrase 1; assay: Inhibition of human carbonic anhydrase 1 esterase activity by competitive Lineweaver-Burke plot
Carbonic anhydrase 1 [7] = biological target: T1, Carbonic anhydrase 1; assay: Inhibition of human carbonic anhydrase 1 esterase activity by uncompetitive Lineweaver-Burke plot
Carbonic anhydrase 2 [8] = biological target: T2, Carbonic anhydrase 2; assay: Inhibition of human carbonic anhydrase 2 esterase activity by competitive Lineweaver-Burke plot

T1 sequence (P00915 whole entry): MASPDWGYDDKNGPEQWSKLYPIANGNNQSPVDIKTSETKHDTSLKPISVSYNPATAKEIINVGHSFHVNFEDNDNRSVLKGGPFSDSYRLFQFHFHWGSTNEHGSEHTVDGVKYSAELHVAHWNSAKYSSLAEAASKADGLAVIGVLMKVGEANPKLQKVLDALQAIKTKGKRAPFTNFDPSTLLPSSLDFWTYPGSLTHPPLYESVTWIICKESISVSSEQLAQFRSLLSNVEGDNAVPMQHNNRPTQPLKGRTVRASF

Row | SMILES | IC50 (Carbonic anhydrase 1 [1]) | IC50 (Carbonic anhydrase 2 [2]) | Ki (Carbonic anhydrase 1 [3]) | Ki (Carbonic anhydrase 2 [4]) | Ki (Carbonic anhydrase 2 [5]) | Ki (Carbonic anhydrase 1 [6]) | Ki (Carbonic anhydrase 1 [7]) | Ki (Carbonic anhydrase 2 [8])
1 | Nc1ccc(C(=O)O)c(O)c1 [AMINOSALICYLIC ACID] | 130 µM | 750 µM | 240 µM | 1230 µM | – | – | – | –
2 | Cc1cccc(C(=O)O)c1O [HYDROXYTOLUIC ACID] | 3070 µM | 4700 µM | 11400 µM | – | 10600 µM | – | – | –
3 | O=C(O)c1cc(S(=O)(=O)O)ccc1O [SULFOSALICYLIC] | 420 µM | 290 µM | – | 1920 µM | – | 770 µM | – | –
4 | O=C(O)c1c(O)cc([N+](=O)[O-])cc1[N+](=O)[O-] | 7.64 µM | – | 14.8 µM | – | – | – | – | –
5 | O=C(O)c1cc(-c2ccc(F)cc2F)ccc1O [DIFLUNISAL] | 3.38 µM | – | 8.45 µM | – | – | – | – | –
6 | O=C(O)c1cc(/N=N/c2ccc(S(=O)(=O)Nc3ccccn3)cc2)ccc1O [SULFASALAZINE] | 3.04 µM | 4.49 µM | 6.87 µM | 8.72 µM | – | – | – | –
7 | CC(=O)Oc1ccccc1C(=O)O [ASPIRIN] | 2710 µM | – | 7530 µM | – | – | – | – | –
8 | O=C(O)c1ccc(S(=O)(=O)O)cc1O | 290 µM | 720 µM | – | – | – | – | 480 µM | 1060 µM
9 | O=C(O)c1cc(Cl)ccc1O [5-CHLOROSALICYLIC ACID] | 4.07 µM | – | – | – | – | – | 4.16 µM | –
